Values of other authors as cited in US11167054B2, “Activated disinfectant hydrogen peroxide compositions” (LONZA, LLC, priority 2014, dated 2021).
Where two headings read alike, the source gives them in different places.

Columns and labels:
[1] = tested on: Pseudomonas Aeruginosa
[2] = tested on: Staphylococcus Aureus
[3] = 6 wt. % hydrogen peroxide solution, 5 minutes contact time
[4] = 6000 ppm (0.6 wt. %) hydrogen peroxide solution, 5 minute contact time

OO [hydrogen peroxide]
Log reduction against Pseudomonas Aeruginosa [1, 3]: < 2 Log | Log reduction against Pseudomonas Aeruginosa [1, 4]: < 1 Log | Log reduction against Staphylococcus Aureus [2, 3]: ~3 Log | log reduction against Staphylococcus Aureus [2, 4]: ~1 log
